Patent publication US20240207243A1, “METHOD OF TREATING LAMINOPATHIES” (Eiger Biopharmaceuticals, Inc., priority 2019, published 2024)
“Also recorded” adds a separate entry of the source.

Key:
[1] = Renal clearance and renal impairment study of lonafarnib; type: in vivo, human
Text: Lonafarnib is renally cleared <1% and no meaningful differences would be expected in subjects with renal impairment. […] Thus, lonafarnib is […].

[2] = biological target: P-gp (Homo sapiens, UniProt P08183); conditions: in vivo
Chain of P-gp (P08183 whole entry): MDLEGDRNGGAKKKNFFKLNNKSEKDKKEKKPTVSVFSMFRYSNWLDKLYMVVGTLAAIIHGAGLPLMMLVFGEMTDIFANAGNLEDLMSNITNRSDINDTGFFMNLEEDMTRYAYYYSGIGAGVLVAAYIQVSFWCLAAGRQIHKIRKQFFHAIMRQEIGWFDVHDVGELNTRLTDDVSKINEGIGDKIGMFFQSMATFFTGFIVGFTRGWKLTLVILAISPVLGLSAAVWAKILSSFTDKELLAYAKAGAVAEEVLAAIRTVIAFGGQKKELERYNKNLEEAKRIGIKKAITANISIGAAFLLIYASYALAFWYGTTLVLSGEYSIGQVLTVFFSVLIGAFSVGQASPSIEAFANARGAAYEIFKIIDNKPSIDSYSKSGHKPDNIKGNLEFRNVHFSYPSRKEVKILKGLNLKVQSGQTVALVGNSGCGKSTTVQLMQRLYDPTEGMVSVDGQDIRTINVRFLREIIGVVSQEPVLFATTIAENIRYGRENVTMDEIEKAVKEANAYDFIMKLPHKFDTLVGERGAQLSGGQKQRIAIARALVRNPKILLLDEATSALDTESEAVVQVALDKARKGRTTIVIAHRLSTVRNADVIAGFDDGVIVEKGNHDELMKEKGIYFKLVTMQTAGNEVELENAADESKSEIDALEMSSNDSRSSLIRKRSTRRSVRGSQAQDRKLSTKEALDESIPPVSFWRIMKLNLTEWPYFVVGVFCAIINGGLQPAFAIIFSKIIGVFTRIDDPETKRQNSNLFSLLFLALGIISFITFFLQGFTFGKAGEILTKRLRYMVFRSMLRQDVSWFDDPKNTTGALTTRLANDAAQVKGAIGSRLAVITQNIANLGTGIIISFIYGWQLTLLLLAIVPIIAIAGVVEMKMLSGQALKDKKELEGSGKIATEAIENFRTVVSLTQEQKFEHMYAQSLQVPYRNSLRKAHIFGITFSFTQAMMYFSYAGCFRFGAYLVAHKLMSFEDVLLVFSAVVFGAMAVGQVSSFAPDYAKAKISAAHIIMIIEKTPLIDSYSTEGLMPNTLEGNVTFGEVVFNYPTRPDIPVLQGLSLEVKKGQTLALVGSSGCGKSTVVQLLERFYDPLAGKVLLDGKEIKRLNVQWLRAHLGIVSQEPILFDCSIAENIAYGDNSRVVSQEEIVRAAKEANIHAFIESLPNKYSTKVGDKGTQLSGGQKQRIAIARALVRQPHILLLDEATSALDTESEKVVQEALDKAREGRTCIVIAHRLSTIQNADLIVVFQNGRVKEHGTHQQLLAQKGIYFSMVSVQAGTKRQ

[3] = tested on: CYP3A; assay: Co-administration of lonafarnib with ketoconazole, a strong CYP3A inhibitor; type: in vivo, human; conditions: co-administered with ketoconazole 200 mg twice daily
[4] = tested on: CYP3A; assay: In vitro and in vivo CYP inhibition studies (CYP3A)
Text: The following medicines are contraindicated when used with lonafarnib and unless otherwise noted, the contraindication is based on the potential for lonafarnib to inhibit metabolism of the co-administered medicinal product, resulting in increased exposure to the co-administered medicinal product and risk of clinically significant adverse effects.
(§1) Concomitant administration of lonafarnib with sensitive CYP3A or CYP2C19 substrates and strong or moderate CYP3A4 inhibitors or inducers, including herbal supplements can increase exposure of the co-administered medicinal product or lonafarnib resulting in risk of clinically significant adverse events or decrease exposure of lonafarnib, which may impact efficacy. Medicinal products that are sensitive CYP3A or CYP2C19 substrates, strong or moderate CYP3A inhibitors, or strong or moderate CYP3A inducers should be discontinued. If treatment cannot safety be discontinued or an alternative drug is not available, lonafarnib should be stopped during the course of treatment unless the benefit outweighs the possible risks.

[5] = biological target: T1, CYP2C19 (Homo sapiens, UniProt P33261); assay: Drug-drug interaction study: multiple-dose LNF on PK of single-dose omeprazole; type: in vivo; set-up: single-dose omeprazole, a sensitive CYP2C19 substrate; endogenous in cells; host or cells: study subjects in vivo; conditions: for CYP2C19 inhibition in vivo (classification): lonafarnib 75 mg twice daily, omeprazole probe
T1 sequence (P33261 whole entry): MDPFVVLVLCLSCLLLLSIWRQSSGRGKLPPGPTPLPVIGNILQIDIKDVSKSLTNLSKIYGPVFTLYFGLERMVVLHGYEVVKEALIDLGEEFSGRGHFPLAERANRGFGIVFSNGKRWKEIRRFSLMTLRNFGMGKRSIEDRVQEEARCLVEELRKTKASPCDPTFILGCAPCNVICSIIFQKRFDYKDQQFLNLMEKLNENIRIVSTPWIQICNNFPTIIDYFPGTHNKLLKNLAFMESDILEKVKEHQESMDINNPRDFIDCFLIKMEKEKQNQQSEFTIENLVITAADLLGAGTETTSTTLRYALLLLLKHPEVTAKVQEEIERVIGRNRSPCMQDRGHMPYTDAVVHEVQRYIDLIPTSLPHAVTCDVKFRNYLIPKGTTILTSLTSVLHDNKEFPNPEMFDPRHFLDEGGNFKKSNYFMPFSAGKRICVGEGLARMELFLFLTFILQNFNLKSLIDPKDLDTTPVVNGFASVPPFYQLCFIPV
Method: (§2) This study was conducted as an open-label, drug-drug interaction (DDI) study, a food-effect study with LNF alone, and a food-effect study with LNF+ritonavir (RTV). This study assessed the effects of multiple-dose LNF (75 mg twice daily×5 days) on the PK of single dose omeprazole (1×40-mg capsule) relative to omeprazole alone in.

[6] = biological target: T1, CYP2C19; assay: In vitro and in vivo CYP inhibition studies (CYP2C19)
Text: as §1

[7] = in vivo
Method: as §2
Other sensitive CYP2C19 substrates should be monitored during concomitant administration with LNF. […] Extent of exposure was 6,200 ng·h/mL and the T1/2 was 5.57 hours. Trough LNF concentrations increased from Day 7 to Day 9 (AM). By Day 10 trough levels stabilized, indicating steady-state LNF levels were achieved over 5 days of consecutive dosing. […] There were no deaths, SAEs, or other significant AEs. All AEs were Grade 1 or 2.

[8] = Food-effect evaluation of single-dose LNF; type: in vivo, human
Text: To evaluate the effect of a high-fat/high-calorie standard breakfast on the single-dose PK of LNF relative to a fasted state in healthy subjects (Group 2).
To evaluate the effect of a low-fat/low-calorie breakfast on the single-dose PK of LNF relative to a fasted state in healthy subjects (Group 2).
The effect of food (high-fat/high-calorie standard breakfast and low-fat/low-calorie breakfast) on the single-dose PK of LNF relative to the single-dose PK of LNF when administered under fasted conditions was evaluated.
• Period 1: Oral dose of LNF (75-mg capsule×1) on Day 1 (AM) under fed conditions (high-fat/high-calorie breakfast) • Period 2: Oral dose of LNF (75-mg capsule×1) on Day 4 (AM) under fed conditions (low-fat/low-calorie breakfast) • Period 3: Oral dose of LNF (75-mg capsule×1) on Day 7 (AM) under fasted conditions

[9] = biological target: CYP3A4 (Homo sapiens, UniProt P08684); assay: Metabolism of lonafarnib
Chain of CYP3A4 (P08684 whole entry): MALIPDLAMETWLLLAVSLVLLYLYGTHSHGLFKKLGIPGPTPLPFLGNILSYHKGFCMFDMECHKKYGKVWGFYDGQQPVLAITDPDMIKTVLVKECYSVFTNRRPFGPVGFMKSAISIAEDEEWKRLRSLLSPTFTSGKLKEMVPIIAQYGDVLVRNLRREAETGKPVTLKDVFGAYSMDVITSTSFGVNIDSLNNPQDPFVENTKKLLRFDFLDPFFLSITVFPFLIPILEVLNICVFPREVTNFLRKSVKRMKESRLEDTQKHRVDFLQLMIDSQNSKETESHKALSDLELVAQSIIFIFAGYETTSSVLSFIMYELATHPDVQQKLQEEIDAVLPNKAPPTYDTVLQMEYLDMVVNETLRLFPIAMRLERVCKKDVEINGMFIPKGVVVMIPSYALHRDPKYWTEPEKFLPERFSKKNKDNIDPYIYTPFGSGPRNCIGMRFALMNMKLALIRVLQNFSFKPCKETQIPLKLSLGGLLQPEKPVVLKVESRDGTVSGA
Text: Lonafarnib has not been studied in subjects with hepatic impairment.

[10] = Multiple-dose lonafarnib PK (100 mg twice daily) in loperamide study; type: in vivo, human
[11] = tested on: CYP3A
[12] = Safety and tolerability in loperamide interaction study
[13] = tested on: CYP3A; assay: Drug-drug interaction study: multiple-dose lonafarnib on pharmacokinetics of single-dose midazolam; conditions: human, in vivo, 100 mg
Text: (§3) An open-label, single-center, two-period, single-sequence, multi-drug-drug interaction study to evaluate the effects of multiple-dose lonafarnib on the pharmacokinetics of single-dose midazolam, a sensitive cytochrome p450-3a substrate.
(§4) Given the profound increase, sensitive substrates of CYP3A should be contraindicated with lonafarnib.

[14] = tested on: cytochrome P450 CYP3A; assay: as above
Text: as §3, §4

[15] = co-administered with lonafarnib vs midazolam alone
[16] = lonafarnib 75 mg twice daily co-administered
[17] = single-dose omeprazole with multiple-dose LNF
[18] = with multiple-dose LNF vs alone

Question: Which results are given for `NC(=O)N1CCC(CC(=O)N2CCC([C@H]3c4ncc(Br)cc4CCc4cc(Cl)cc(Br)c43)CC2)CC1` [lonafarnib]?
Answer: fraction renally cleared ([1]; in vivo): < 1%; lonafarnib exposure in renal impairment ([1]; subjects with severe renal impairment): exposures increase; P-gp inhibition (classification) [2]: weak P-gp inhibitor; lonafarnib AUC increase [3]: approximately 5 fold; lonafarnib Cmax increase [3]: approximately 3.6 fold; CYP3A inhibition (classification) [4]: potent CYP3A time-dependent and mechanism based inhibitor; CYP2C19 inhibition in vivo (classification) [5]: moderate CYP2C19 inhibitor; CYP2C19 inhibition in vivo (classification) ([5]; listed as LNF): direct/reversible inhibition of CYP2C19 in a moderate magnitude; CYP2C19 inhibition (classification) [6]: moderate CYP2C19 inhibitor; adverse event incidence [7]: More subjects experienced AEs taking LNF; LNF CL/F higher than fasted state ([8]; single 75 mg dose, 2 fed states vs fasted): 33-35%; decrease of LNF exposure (AUC0-t and AUC0-inf) ([8]; single 75 mg dose, fed states vs fasted): 21-29%; LNF Cmax decrease relative to fasted state ([8]; single 75 mg dose, high-fat/high-calorie breakfast): 55%; LNF Cmax decrease relative to fasted state ([8]; single 75 mg dose, low-fat/low-calorie breakfast): 25%; LNF Tmax relative to fasted state ([8]; single dose with high-fat/high-calorie or low-fat/low-calorie meal): delayed; route of metabolism [9]: extensively metabolised via the cytochrome P450 enzyme system in the liver; also recorded: metabolized predominantly via CYP3A4 enzyme; Cmax ([10]; human, in vivo, steady state): 964 ng/mL; half-life ([10]; human, in vivo, steady state, read-out: lonafarnib T1/2 (converted)): 4.22 h; lonafarnib extent of exposure ([10]; steady state): 6,940 ng·h/mL; study day by which steady state was achieved ([10]; trough lonafarnib concentrations): ≤ 8 days

Question: For `CN(C)C(=O)C(CCN1CCC(O)(c2ccc(Cl)cc2)CC1)(c1ccccc1)c1ccccc1` [loperamide], which “increase of loperamide exposures (upper limit)” value ([11]; coadministration of lonafarnib with loperamide) is on record?
Answer: The value was “up to 4.6 fold”.

Question: And the “loperamide Cmax increase” value ([11]; single-dose loperamide 2 mg after lonafarnib 100 mg twice daily 5 days vs loperamide alone)?
Answer: The value was roughly 3 fold.

Question: And the “loperamide Kel compared with loperamide alone” value ([11]; with multiple-dose lonafarnib)?
Answer: Its value is “similar”.

Question: And the tolerability ([12]; healthy subjects, lonafarnib 100 mg twice daily and loperamide 2 mg)?
Answer: The tolerability was “generally tolerated lonafarnib and loperamide well”.

Question: What about the “GI adverse events vs lonafarnib alone” value ([12]; loperamide coadministered with lonafarnib) of the same compound?
Answer: Its value is “fewer GI adverse events”.

Question: For `Cc1ncc2n1-c1ccc(Cl)cc1C(c1ccccc1F)=NC2` [midazolam], which Tmax [13] is on record?
Answer: The Tmax was 0.5 h.

Question: What about the “midazolam AUC increase” value [14, 15] of the same compound?
Answer: The value was “approximately 7 fold”.

Question: What about the “midazolam Cmax increase” value [14, 15] of the same compound?
Answer: The value was “approximately 3 fold”.

Question: And the “change in midazolam Cmax, AUC0-t and AUC0-inf” value ([14]; single-dose midazolam with multiple-dose lonafarnib)?
Answer: The value was “increased statistically significantly”.

Question: With `COc1ccc2[nH]c([S+]([O-])Cc3ncc(C)c(OC)c3C)nc2c1` (stereo not shown) [omeprazole] as the compound, how does the “change in omeprazole CL/F” value ([5]; coadministration with LNF) read?
Answer: Its value is “decreased”.

Question: And the “change in omeprazole Kel” value ([5]; coadministration with LNF)?
Answer: The value was “decreased”.

Question: What about the “change in omeprazole T1/2” value ([5]; coadministration with LNF) of the same compound?
Answer: Its value is “increased”.

Question: What about the “omeprazole AUC increase” value [5, 16] of the same compound?
Answer: Its value is “approximately 1.6 fold”.

Question: What about the “omeprazole Cmax increase” value [5, 16] of the same compound?
Answer: The value was “approximately 1.3 fold”.

Question: And the “omeprazole Cmax increase” value ([5]; single-dose omeprazole 40 mg with multiple-dose LNF 75 mg twice daily 5 days)?
Answer: Its value is 44%.

Question: What about the “omeprazole AUC0-t and AUC0-inf increase” value [5, 17] of the same compound?
Answer: The value was “approximately 2 fold”.

Question: And the “omeprazole Tmax with vs without LNF” value [5, 17]?
Answer: The value was “approximately the same time”.

Question: And the “omeprazole AUC0-inf geometric mean ratio (CI)” value [5, 18]?
Answer: The value was 1.600 (1.32, 1.94).

Question: What about the “omeprazole AUC0-t geometric mean ratio (CI)” value [5, 18] of the same compound?
Answer: Its value is 1.602 (1.34, 1.91).

Question: And the “omeprazole Cmax geometric mean ratio (CI)” value [5, 18]?
Answer: The value was 1.275 (1.01, 1.61).
